Test system: MV-4-11 cells
Assay: Gene expression microarray analysis (Affymetrix PrimeView) and GSEA
Assay type: cell-based, human
Parameters: RFU PODN (11730768_x_at) / Fold change /veh PODN (11730768_x_at) / RFU LINC00158 (11744669_a_at) / Fold change /veh LINC00158 (11744669_a_at) / RFU DUSP10 (11751237_a_at) / Fold change /veh DUSP10 (11751237_a_at) / RFU ID3 (11757404_x_at) / Fold change /veh ID3 (11757404_x_at) / RFU PLEKHG5 (11737974_s_at) / Fold change /veh PLEKHG5 (11737974_s_at) / RFU LRRC4B (11730491_at) / Fold change /veh LRRC4B (11730491_at) / RFU GIMAP4 (11747438_a_at) / Fold change /veh GIMAP4 (11747438_a_at) / RFU KRT8 (11758183_x_at) / Fold change /veh KRT8 (11758183_x_at) / RFU CNN1 (11734310_a_at) / Fold change /veh CNN1 (11734310_a_at) / RFU VPS37D (11726825_at) / Fold change /veh VPS37D (11726825_at) / RFU C10orf10 (11716522_x_at) / Fold change /veh C10orf10 (11716522_x_at) / RFU KIR2DL2 /// KIR2DL4 /// KIR2DL5A /// KIR2DL5B /// KIR2DS1 /// KIR2DS2 /// KIR2DS3 /// KIR2DS4 /// KIR3DL3 /// KIR3DL3 /// KIR3DS1 (11738374_at) / Fold change /veh KIR2DL2 /// KIR2DL4 /// KIR2DL5A /// KIR2DL5B /// KIR2DS1 /// KIR2DS2 /// KIR2DS3 /// KIR2DS4 /// KIR3DL3 /// KIR3DL3 /// KIR3DS1 (11738374_at) / RFU C1QL1 (11718748_at) / Fold change /veh C1QL1 (11718748_at) / RFU TMPRSS4 (11747572_a_at) / Fold change /veh TMPRSS4 (11747572_a_at) / RFU HAMP (11756126_x_at) / Fold change /veh HAMP (11756126_x_at) / RFU RNFT2 (11725882_a_at) / Fold change /veh RNFT2 (11725882_a_at) / RFU NR4A2 (11747474_a_at) / Fold change /veh NR4A2 (11747474_a_at) / RFU ABCC12 (11746883_a_at) / Fold change /veh ABCC12 (11746883_a_at) / RFU TMEM136 (11760407_x_at) / Fold change /veh TMEM136 (11760407_x_at) / RFU CLDN22 /// WWC2 (11732394_at) / Fold change /veh CLDN22 /// WWC2 (11732394_at) / RFU HLA-DPB1 (11760878_x_at) / Fold change /veh HLA-DPB1 (11760878_x_at) / RFU SPINT1 (11716480_a_at) / Fold change /veh SPINT1 (11716480_a_at) / RFU GAP43 (11754022_s_at) / Fold change /veh GAP43 (11754022_s_at) / RFU A4GNT (11735810_at) / Fold change /veh A4GNT (11735810_at) / RFU PRB3 (11715151_x_at) / Fold change /veh PRB3 (11715151_x_at) / RFU TUBB4B (11761932_at) / Fold change /veh TUBB4B (11761932_at) / RFU CAPN14 (11732068_a_at) / Fold change /veh CAPN14 (11732068_a_at) / RFU TMCC2 (11721928_a_at) / Fold change /veh TMCC2 (11721928_a_at) / RFU IRGQ (11745062_a_at) / Fold change /veh IRGQ (11745062_a_at) / RFU FAM174B (11720279_a_at) / Fold change /veh FAM174B (11720279_a_at) / RFU TMPRSS4 (11748680_a_at) / Fold change /veh TMPRSS4 (11748680_a_at) / RFU FAM212B (11763350_a_at) / Fold change /veh FAM212B (11763350_a_at) / RFU PLEKHG5 (11743358_a_at) / Fold change /veh PLEKHG5 (11743358_a_at) / RFU ZSCAN30 (11745921_a_at) / Fold change /veh ZSCAN30 (11745921_a_at) / RFU CMKLR1 (11741424_a_at) / Fold change /veh CMKLR1 (11741424_a_at) / RFU LOC101060620 /// MAPK8IP1 (11723275_at) / Fold change /veh LOC101060620 /// MAPK8IP1 (11723275_at) / RFU SPTSSB (11747773_x_at) / Fold change /veh SPTSSB (11747773_x_at) / RFU PRSS12 (11739890_at) / Fold change /veh PRSS12 (11739890_at) / RFU BIN1 (11741810_x_at) / Fold change /veh BIN1 (11741810_x_at) / RFU WNT11 (11732464_a_at) / Fold change /veh WNT11 (11732464_a_at) / RFU C10orf10 (11716521_a_at) / Fold change /veh C10orf10 (11716521_a_at) / RFU C5orf56 (11738089_at) / Fold change /veh C5orf56 (11738089_at) / RFU CYB561 (11721691_x_at) / Fold change /veh CYB561 (11721691_x_at) / RFU ANKRD19P (11752326_a_at) / Fold change /veh ANKRD19P (11752326_a_at) / RFU OR2T12 /// OR2T33 /// OR2T8 (11738714_s_at) / Fold change /veh OR2T12 /// OR2T33 /// OR2T8 (11738714_s_at) / RFU VCAN (11748164_a_at) / Fold change /veh VCAN (11748164_a_at) / RFU JSRP1 (11732532_at) / Fold change /veh JSRP1 (11732532_at) / RFU KRTAP10-11 (11738290_x_at) / Fold change /veh KRTAP10-11 (11738290_x_at) / RFU MYO3A (11730013_a_at) / Fold change /veh MYO3A (11730013_a_at) / RFU EBF3 (11725865_a_at) / Fold change /veh EBF3 (11725865_a_at) / RFU CAMK2N1 (11719241_x_at) / Fold change /veh CAMK2N1 (11719241_x_at) / RFU C5orf56 (11738088_a_at) / Fold change /veh C5orf56 (11738088_a_at) / RFU OLFML3 (11715873_a_at) / Fold change /veh OLFML3 (11715873_a_at) / RFU LOC100653217 /// NTM (11731650_a_at) / Fold change /veh LOC100653217 /// NTM (11731650_a_at) / RFU MAPK11 (11762145_a_at) / Fold change /veh MAPK11 (11762145_a_at) / RFU FIZ1 (11724087_x_at) / Fold change /veh FIZ1 (11724087_x_at) / RFU OASL (11726364_x_at) / Fold change /veh OASL (11726364_x_at) / RFU SOX15 (11748057_x_at) / Fold change /veh SOX15 (11748057_x_at) / RFU CD79A (11719716_a_at) / Fold change /veh CD79A (11719716_a_at) / RFU HIST1H1D (11736915_at) / Fold change /veh HIST1H1D (11736915_at) / RFU CASKIN2 (11723855_a_at) / Fold change /veh CASKIN2 (11723855_a_at) / RFU LOC730098 (11760151_x_at) / Fold change /veh LOC730098 (11760151_x_at) / RFU OR4N2 (11742367_at) / Fold change /veh OR4N2 (11742367_at) / RFU PRRT2 (11749266_a_at) / Fold change /veh PRRT2 (11749266_a_at) / RFU SNX32 (11753110_a_at) / Fold change /veh SNX32 (11753110_a_at) / RFU CDHR5 (11726645_a_at) / Fold change /veh CDHR5 (11726645_a_at) / RFU RCAN1 (11760418_a_at) / Fold change /veh RCAN1 (11760418_a_at) / RFU FAM167A (11723789_a_at) / Fold change /veh FAM167A (11723789_a_at) / RFU FAM26E (11764081_at) / Fold change /veh FAM26E (11764081_at) / RFU ISYNA1 (11749810_s_at) / Fold change /veh ISYNA1 (11749810_s_at) / RFU ACY1 (11761880_at) / Fold change /veh ACY1 (11761880_at) / RFU 11764098_at / Fold change /veh 11764098_at / RFU SAMD14 (11745864_x_at) / Fold change /veh SAMD14 (11745864_x_at) / RFU NPB (11741838_a_at) / Fold change /veh NPB (11741838_a_at) / RFU TMPRSS6 (11731388_a_at) / Fold change /veh TMPRSS6 (11731388_a_at) / RFU KRTAP10-2 (11738614_at) / Fold change /veh KRTAP10-2 (11738614_at) / RFU ARHGAP8 /// PRR5-ARHGAP8 (11727945_x_at) / Fold change /veh ARHGAP8 /// PRR5-ARHGAP8 (11727945_x_at) / RFU KRTAP5-7 /// NADSYN1 (11734609_at) / Fold change /veh KRTAP5-7 /// NADSYN1 (11734609_at) / RFU RASL12 (11751679_a_at) / Fold change /veh RASL12 (11751679_a_at) / RFU CDKN2B (11736163_a_at) / Fold change /veh CDKN2B (11736163_a_at) / RFU PRF1 (11729649_at) / Fold change /veh PRF1 (11729649_at) / RFU, ZNF638 /// ZNF638-IT1 / Fold change vs veh, ZNF638 /// ZNF638-IT1 / RFU, PANK3 / Fold change vs veh, PANK3 / RFU, SH3YL1 / Fold change vs veh, SH3YL1 / RFU, ZEB2 / Fold change vs veh, ZEB2 / RFU, NRIP1 / Fold change vs veh, NRIP1 / RFU, PTTG1IP / Fold change vs veh, PTTG1IP / RFU, CAPN2 / Fold change vs veh, CAPN2 / RFU, MED14 / Fold change vs veh, MED14 / RFU, SNORA58 / Fold change vs veh, SNORA58 / RFU, C1orf63 / Fold change vs veh, C1orf63 / RFU, LRRFIP1 / Fold change vs veh, LRRFIP1 / RFU, NDUFAF7 / Fold change vs veh, NDUFAF7 / RFU, SLC12A2 / Fold change vs veh, SLC12A2 / RFU, IBTK / Fold change vs veh, IBTK / RFU, ESF1 / Fold change vs veh, ESF1 / Fold change vs veh, TMEM50B / RFU, TAOK1 / Fold change vs veh, TAOK1 / RFU, ACBD3 / Fold change vs veh, ACBD3 / RFU, TMA16 / Fold change vs veh, TMA16 / RFU, RWDD3 / Fold change vs veh, RWDD3 / RFU, BCAT1 / Fold change vs veh, BCAT1 / RFU, EDEM3 / Fold change vs veh, EDEM3 / RFU, TMEM33 / Fold change vs veh, TMEM33 / RFU, WDR75 / Fold change vs veh, WDR75 / RFU, AHCTF1 / Fold change vs veh, AHCTF1 / RFU, TFRC / Fold change vs veh, TFRC / RFU, ZDHHC17 / Fold change vs veh, ZDHHC17 / RFU, NOM1 / Fold change vs veh, NOM1 / RFU, ARL8B / Fold change vs veh, ARL8B / RFU, ZBTB11 / Fold change vs veh, ZBTB11 / RFU, TAMM41 / Fold change vs veh, TAMM41 / RFU, KIAA1704 /// LOC100996395 / Fold change vs veh, KIAA1704 /// LOC100996395 / RFU, ING1 / Fold change vs veh, ING1 / RFU, TRMT61B / Fold change vs veh, TRMT61B / RFU, FUBP3 / Fold change vs veh, FUBP3 / RFU, TP53 / Fold change vs veh, TP53 / RFU, TNKS2 / Fold change vs veh, TNKS2 / RFU, ZFP14 / Fold change vs veh, ZFP14 / RFU, ACTR2 / Fold change vs veh, ACTR2 / RFU, PPP3R1 / Fold change vs veh, PPP3R1 / RFU, PIK3R1 / Fold change vs veh, PIK3R1 / RFU, HNRNPA1 / Fold change vs veh, HNRNPA1 / RFU, RNF170 / Fold change vs veh, RNF170 / RFU, ZNF28 / Fold change vs veh, ZNF28 / RFU, RNGTT / Fold change vs veh, RNGTT / RFU, OGT / Fold change vs veh, OGT / RFU, BRD1 / Fold change vs veh, BRD1 / RFU, MARS / Fold change vs veh, MARS / RFU, ZNF655 / Fold change vs veh, ZNF655 / RFU, FAHD1 / Fold change vs veh, FAHD1 / RFU, BDP1 / Fold change vs veh, BDP1 / RFU, LRRCC1 / Fold change vs veh, LRRCC1 / RFU, ARID1A / Fold change vs veh, ARID1A / RFU, ZNF146 / Fold change vs veh, ZNF146 / RFU, ZNF330 / Fold change vs veh, ZNF330 / RFU, GPN3 / Fold change vs veh, GPN3 / RFU, C9orf123 / Fold change vs veh, C9orf123 / RFU, N4BP2L2 / Fold change vs veh, N4BP2L2 / RFU, ARFIP1 / Fold change vs veh, ARFIP1 / RFU, FAM179B / Fold change vs veh, FAM179B / RFU, BCL10 / Fold change vs veh, BCL10 / RFU, UHRF1BP1L / Fold change vs veh, UHRF1BP1L / RFU, BET1 / Fold change vs veh, BET1 / RFU, CNOT2 / Fold change vs veh, CNOT2 / RFU, ZNF268 / Fold change vs veh, ZNF268 / Fold change vs veh, ZNF507 / RFU, DGCR2 / Fold change vs veh, DGCR2 / RFU, WDSUB1 / Fold change vs veh, WDSUB1 / Fold change vs veh, HSP90B1 /// MIR3652 / RFU, ADSS / Fold change vs veh, ADSS / RFU, GK / Fold change vs veh, GK / RFU, ZNF148 / Fold change vs veh, ZNF148 / RFU, TAF9 / Fold change vs veh, TAF9 / RFU, SLC1A5 / Fold change vs veh, SLC1A5 / RFU, SLMO2 / Fold change vs veh, SLMO2 / RFU, ABCC4 / Fold change vs veh, ABCC4 / RFU, LOC101060439 /// RAP1B / Fold change vs veh, LOC101060439 /// RAP1B / RFU, RFX7 / Fold change vs veh, RFX7 / RFU, GTPBP10 / Fold change vs veh, GTPBP10 / RFU, CNEP1R1 / Fold change vs veh, CNEP1R1 / RFU, BIVM-ERCC5 /// ERCC5 / Fold change vs veh, BIVM-ERCC5 /// ERCC5 / RFU, ILF3 / Fold change vs veh, ILF3 / RFU 11762660_at / Fold change /veh 11762660_at / RFU VCAN (11757783_s_at) / Fold change /veh VCAN (11757783_s_at) / RFU DDX43 (11728927_at) / Fold change /veh DDX43 (11728927_at) / RFU KRT8 (11758188_x_at) / Fold change /veh KRT8 (11758188_x_at) / RFU NKD1 (11759106_at) / Fold change /veh NKD1 (11759106_at) / RFU SRD5A1 (11742802_a_at) / Fold change /veh SRD5A1 (11742802_a_at) / RFU TPSAB1 /// TPSB2 (11721975_s_at) / Fold change /veh TPSAB1 /// TPSB2 (11721975_s_at) / RFU GSTM3 (11746129_a_at) / Fold change /veh GSTM3 (11746129_a_at) / RFU IL23R (11737362_x_at) / Fold change /veh IL23R (11737362_x_at) / RFU TMEM51 (11727254_a_at) / Fold change /veh TMEM51 (11727254_a_at) / RFU PIWIL2 (11732686_x_at) / Fold change /veh PIWIL2 (11732686_x_at) / RFU ORM1 (11744905_x_at) / Fold change /veh ORM1 (11744905_x_at) / RFU CCDC152 (11743942_at) / Fold change /veh CCDC152 (11743942_at) / RFU ECM1 (11717891_a_at) / Fold change /veh ECM1 (11717891_a_at) / RFU IL23R (11748794_a_at) / Fold change /veh IL23R (11748794_a_at) / RFU TNFAIP8L3 (11732012_x_at) / Fold change /veh TNFAIP8L3 (11732012_x_at) / RFU MBOAT4 (11741988_at) / Fold change /veh MBOAT4 (11741988_at) / RFU 11764193_at / Fold change /veh 11764193_at / RFU TMEM53 (11763286_at) / Fold change /veh TMEM53 (11763286_at) / RFU MAGEB2 (11727129_at) / Fold change /veh MAGEB2 (11727129_at) / RFU TMEM200A (11744735_a_at) / Fold change /veh TMEM200A (11744735_a_at) / RFU CCDC152 (11751479_a_at) / Fold change /veh CCDC152 (11751479_a_at) / RFU FAM211A (11726209_a_at) / Fold change /veh FAM211A (11726209_a_at) / RFU RGS16 (11746705_a_at) / Fold change /veh RGS16 (11746705_a_at) / RFU VCAN (11755009_s_at) / Fold change /veh VCAN (11755009_s_at) / RFU RHOB (11743442_s_at) / Fold change /veh RHOB (11743442_s_at) / RFU RGS16 (11720943_a_at) / Fold change /veh RGS16 (11720943_a_at) / RFU RGS16 (11720944_at) / Fold change /veh RGS16 (11720944_at) / RFU, VPS4B / Fold change vs veh, VPS4B / RFU, CREB1 / Fold change vs veh, CREB1 / RFU, DNAJC13 / Fold change vs veh, DNAJC13 / RFU, GNAQ / Fold change vs veh, GNAQ / RFU, CDK5R1 / Fold change vs veh, CDK5R1 / RFU, ZRANB3 / Fold change vs veh, ZRANB3 / RFU, CUL4A / Fold change vs veh, CUL4A / RFU, CCNY / Fold change vs veh, CCNY / RFU, UFL1 / Fold change vs veh, UFL1 / RFU, COG3 / Fold change vs veh, COG3 / RFU, DIAPH2 / Fold change vs veh, DIAPH2 / RFU, SKA2 / Fold change vs veh, SKA2 / RFU, AFF3 / Fold change vs veh, AFF3 / RFU, LMF1 / Fold change vs veh, LMF1 / RFU, IPO11 / Fold change vs veh, IPO11 / RFU, DFFB / Fold change vs veh, DFFB / RFU, FOXP1 / Fold change vs veh, FOXP1 / RFU, CARD8 / Fold change vs veh, CARD8 / RFU, STRN3 / Fold change vs veh, STRN3 / RFU, ADK / Fold change vs veh, ADK / RFU, RASSF2 / Fold change vs veh, RASSF2 / RFU, WIPF1 / Fold change vs veh, WIPF1 / RFU, LARP1B / Fold change vs veh, LARP1B / RFU, RASA1 / Fold change vs veh, RASA1 / RFU, RB1 / Fold change vs veh, RB1 / RFU, PPFIA1 / Fold change vs veh, PPFIA1 / RFU, MAT2A / Fold change vs veh, MAT2A / RFU, CCT5 / Fold change vs veh, CCT5 / RFU, WDR92 / Fold change vs veh, WDR92 / RFU, CUX1 / Fold change vs veh, CUX1 / RFU, TTC7A / Fold change vs veh, TTC7A / RFU, TMEM135 / Fold change vs veh, TMEM135 / RFU, DEPTOR / Fold change vs veh, DEPTOR / RFU, CPM / Fold change vs veh, CPM / RFU, DNAJB6 / Fold change vs veh, DNAJB6 / RFU, CACNA2D3 / Fold change vs veh, CACNA2D3 / RFU, DTX4 / Fold change vs veh, DTX4 / RFU, TFCP2 / Fold change vs veh, TFCP2 / RFU, GMCL1 /// GMCL1P1 / Fold change vs veh, GMCL1 /// GMCL1P1 / RFU, AEBP2 / Fold change vs veh, AEBP2 / RFU, SNHG1 /// SNORD22 /// SNORD25 /// SNORD26 /// SNORD27 /// SNORD28 /// SNORD29 /// SNORD31 / Fold change vs veh, SNHG1 /// SNORD22 /// SNORD25 /// SNORD26 /// SNORD27 /// SNORD28 /// SNORD29 /// SNORD31 / Fold change (Aza/veh), C12orf56 (ProbeSet 11735607_a_at) / Fold change (ACY-1035/veh), C12orf56 (ProbeSet 11735607_a_at) / Fold change (Aza/veh), FGFR1OP (ProbeSet 11751329_s_at) / Fold change (ACY-1035/veh), FGFR1OP (ProbeSet 11751329_s_at) / Fold change (Aza/veh), VPS36 (ProbeSet 11739960_a_at) / Fold change (ACY-1035/veh), VPS36 (ProbeSet 11739960_a_at) / RFU SYPL1 (11715823_x_at) / Fold change /veh SYPL1 (11715823_x_at) / RFU IGFBP7 (11715501_s_at) / Fold change /veh IGFBP7 (11715501_s_at) / RFU REEP3 (11722064_at) / Fold change /veh REEP3 (11722064_at) / RFU IGLL1 (11728026_x_at) / Fold change /veh IGLL1 (11728026_x_at): dose or concentration left out as unconfirmed
Settings: ProbeSet 11730252_s_at; LIST B

For `Nc1ccc(-c2cccs2)cc1NC(=O)c1ccc2c(c1)cc(C1CC1)n2CCN1CCOCC1` [ACY-1035], the “RFU, AHCTF1” value was 224.50 RFU.

Source: paper PMC5218480 (PLoS ONE, 2017)
